Assay results reported in patent publication US8518980B2, “Treatment of Duchenne muscular dystrophy” (Summit Corporation PLC, priority 2006, dated 2013).
Counter-ions that a name gives are not always drawn.

Test system: Utrophin A promoter linked to a luciferase reporter gene (H2K/mdx/Utro A reporter cell line)
Assay: Luciferase reporter assay (murine H2K cells)
Conditions: for Activity: luciferase level relative to control, final concentration of 10 μM; for activity at 10 µM: Mus musculus, H2K mdx

Structure (SMILES) | activity at 10 µM [%] | further results
O=C(O)c1cccc(-c2ccc3oc(-c4ccc(Cl)cc4)nc3c2)c1 [Example 313, 3-(2-(4-chlorophenyl)benzo[d]oxazol-5-yl)benzoic acidd] | – | Activity (Table 1): + (Up to 200% relative to control)
Clc1ccc(-c2nc3cc4c(cc3o2)OCO4)cc1Cl [Example 361, 2-(3,4-chlorophenyl)-5,6-methylenedioxybenzoxazole] | – | Activity (Table 1): + (Up to 200% relative to control)
CCN(CC)S(=O)(=O)c1ccc2oc(-c3ccc(Cl)cc3)nc2c1 [Example 439, 2-(4′-chlorophenyl)-5-(N,N-diethylsulfonamidyl)-benzoxazole] | – | Activity (Table 1): + (Up to 200% relative to control)
CC(=O)c1ccc2oc(-c3ccc(Cl)c(Cl)c3)nc2c1 [Example 453, 1-(2′-(3″,4″-Dichlorophenyl)benzo[d]oxazol-5′-yl)ethanone] | – | Activity (Table 1): ++++ (Above 401% relative to control)
Clc1ccc(SCc2ccc(-c3nc4ccccc4[nH]3)cc2)cc1 [Example 460, 2-(4-((4-chlorophenylthio)methyl)phenyl)-1H-benzo[d]imidazole] | < 200 | –
Clc1ccc(OCc2nc3ccccc3[nH]2)c(Cl)c1 [Example 461, 2-((2,4-dichlorophenoxy)methyl)-1H-benzo[d]imidazole] | 301 to 400 | –
Cc1ccc2sc(NC(=O)NC(=O)c3c(Cl)cccc3Cl)nc2c1 [Example 462, 2,6-dichloro-N-(5-methylbenzo[d]thiazol-2-ylcarbamoyl)benzamide] | < 200 | –
c1csc(-c2nc3ccccc3[nH]2)c1 [Example 463, 2-(thiophen-2-yl)-1H-benzo[d]imidazole] | < 200 | –
O=C(Nc1cccc(-c2nc3ccccc3[nH]2)c1)c1ccccc1 [Example 464, N-(3-(1H-benzo[d]imidazol-2-yl)phenyl)benzamide] | < 200 | –
Clc1ccc(OCc2nc3ccccc3n2Cc2ccccc2Cl)c(Cl)c1 [Example 465, 1-(2-chlorobenzyl)-2-((2,4-dichlorophenoxy)methyl)-1H-benzo[d]imidazole] | < 200 | –
Cc1nc2ccc(NC(=O)Nc3ccccc3)cc2o1 [Example 466, 1-(2-methylbenzo[d]oxazol-6-yl)-3-phenylurea] | < 200 | –
CNC(=O)Nc1ccc2nc(C)oc2c1 [Example 467, 1-methyl-3-(2-methylbenzo[d]oxazol-6-yl)urea] | < 200 | –
Cc1nc2ccc(NC(=O)NC(=O)c3ccccc3Cl)cc2o1 [Example 468, 2-chloro-N-(2-methylbenzo[d]oxazol-6-ylcarbamoyl)benzamide] | < 200 | –
Clc1ccc(-c2nc3cc(CN4CCCCC4)ccc3o2)cc1 [Example 469, 2-(4-chlorophenyl)-5-(piperidin-1-ylmethyl)benzo[d]oxazole] | < 200 | –
COc1ccc(-c2nc3ccccc3[nH]2)cc1 [Example 470, 2-(4-methoxyphenyl)-1H-benzo[d]imidazole] | 201 to 300 | –
c1ccc(OCc2nc3ccccc3[nH]2)cc1 [Example 471, 2-(phenoxymethyl)-1H-benzo[d]imidazole] | 201 to 300 | –
Cn1c(-c2ccc([N+](=O)[O-])cc2)nc2ccccc21 [Example 472, 1-methyl-2-(4-nitrophenyl)-1H-benzo[d]imidazole] | < 200 | –
COc1ccc(OCc2nc3ccccc3[nH]2)cc1 [Example 473, 2-((4-methoxyphenoxy)methyl)-1H-benzo[d]imidazole] | – | Activity (Table 2): ++ (Between 201% and 300% relative to control)
Cn1c(COc2ccccc2)nc2ccccc21 [Example 474, 1-methyl-2-(phenoxymethyl)-1H-benzo[d]imidazole] | < 200 | –

Structure (SMILES) | activity at 10 µM [%] | further results
Nc1ccc(-c2nc3ccccc3[nH]2)cc1 [Example 475, 4-(1H-benzo[d]imidazol-2-yl)aniline] | < 200 | –
Nc1ccc2nc(-c3ccc(-c4nc5ccc(N)cc5[nH]4)cc3)[nH]c2c1 [Example 476, 2,2′-(1,4-phenylene)bis(1H-benzo[d]imidazol-6-amine)] | < 200 | –
O=[N+]([O-])c1ccc(-c2nc3ccccc3o2)cc1 [Example 477, 2-(4-nitrophenyl)benzo[d]oxazole] | < 200 | –
Nc1ccc(-c2nc3ccccc3o2)cc1 [Example 478, 4-(benzo[d]oxazol-2-yl)aniline] | 201 to 300 | –
Cc1ccc(-c2nc3ccccc3s2)cc1N [Example 479, 5-(benzo[d]thiazol-2-yl)-2-methylaniline] | 201 to 300 | –
Nc1ccc2oc(-c3ccc(Cl)c(Cl)c3)nc2c1 [Example 480, 2-(3,4-dichlorophenyl)benzo[d]oxazol-5-amine] | 201 to 300 | –
CCc1ccc(-c2nc3cc(N)ccc3o2)cc1 [Example 481, 2-(4-ethylphenyl)benzo[d]oxazol-5-amine] | 201 to 300 | –
Cc1cc(C)cc(-c2nc3cc(N)ccc3o2)c1 [Example 482, 2-(3,5-dimethylphenyl)benzo[d]oxazol-5-amine] | < 200 | –
Oc1ccccc1-c1nc2ccccc2s1 [Example 483, 2-(benzo[d]thiazol-2-yl)phenol] | < 200 | –
Nc1ccc(-c2nc3ccccc3o2)c(O)c1 [Example 484, 5-amino-2-(benzo[d]oxazol-2-yl)phenol] | 201 to 300 | –
Cc1cc2nc(-c3ccc(N)cc3)oc2cc1C [Example 485, 4-(5,6-dimethylbenzo[d]oxazol-2-yl)aniline] | 201 to 300 | –
CN(C)c1ccc(-c2nc3ccccc3o2)cc1 [Example 486, 4-(benzo[d]oxazol-2-yl)-N,N-dimethylaniline] | < 200 | –
Nc1ccc2oc(-c3ccc(Cl)cc3)nc2c1 [Example 488, 2-(4-chlorophenyl)benzo[d]oxazol-5-amine] | 201 to 300 | –
Nc1ccc2oc(-c3cccc(Cl)c3)nc2c1 [Example 489, 2-(3-chlorophenyl)benzo[d]oxazol-5-amine] | 201 to 300 | –
Cn1c(-c2ccc(N)cc2)nc2cc(N)ccc21 [Example 490, 2-(4-aminophenyl)-1-methyl-1H-benzo[d]imidazol-5-amine] | < 200 | –
CN(C)c1ccc(-c2nc3cc(N)ccc3o2)cc1 [Example 491, 2-(4-(dimethylamino)phenyl)benzo[d]oxazol-5-amine] | 201 to 300 | –
O=[N+]([O-])c1ccc2oc(-c3ccccc3)nc2c1 [Example 492, 5-nitro-2-phenylbenzo[d]oxazole] | 201 to 300 | –
O=C(Cc1cccs1)Nc1ccc(-c2nc3ccccc3[nH]2)cc1 [Example 493, N-(4-(1H-benzo[d]imidazol-2-yl)phenyl)-2-(thiophen-2-yl)acetamide] | < 200 | –
COc1ccc(C(=O)Nc2ccc(-c3nc4ccccc4[nH]3)cc2)cc1OC [Example 494, N-(4-(1H-benzo[d]imidazol-2-yl)phenyl)-3,4-dimethoxybenzamide] | < 200 | –

Structure (SMILES) | activity at 10 µM [%] | further results
Clc1ccc(OCc2nc3ccccc3[nH]2)cc1 [Example 495, 2-((4-chlorophenoxy)methyl)-1H-benzo[d]imidazole] | < 200 | –
Nc1ccc2oc(-c3ccc(O)cc3)nc2c1 [Example 496, 4-(5-aminobenzo[d]oxazol-2-yl)phenol] | 201 to 300 | –
O=C(Nc1ccc(-c2nc3ccccc3[nH]2)cc1)c1ccccc1 [Example 497, N-(4-(1H-benzo[d]imidazol-2-yl)phenyl)benzamide] | < 200 | –
CN(C)c1ccc(-c2nc3ccccc3[nH]2)cc1 [Example 498, 4-(1H-benzo[d]imidazol-2-yl)-N,N-dimethylaniline] | < 200 | –
COCc1nc2ccccc2[nH]1 [Example 499, 2-(methoxymethyl)-1H-benzo[d]imidazole] | < 200 | –
O=C(Nc1ccccc1-c1nc2ccccc2[nH]1)c1ccc(Cl)cc1Cl [Example 500, N-(2-(1H-benzo[d]imidazol-2-yl)phenyl)-2,4-dichlorobenzamide] | < 200 | –
O=C(Cc1ccccc1)Nc1ccc(-c2nc3ccccc3[nH]2)cc1 [Example 501, N-(4-(1H-benzo[d]imidazol-2-yl)phenyl)-2-phenylacetamide] | < 200 | –
CCc1ccc2oc(-c3cccc(N)c3)nc2c1 [Example 502, 3-(5-ethylbenzo[d]oxazol-2-yl)aniline] | 201 to 300 | –
CC(=O)Nc1cccc(-c2nc3ccccc3[nH]2)c1 [Example 503, N-(3-(1H-benzo[d]imidazol-2-yl)phenyl)acetamide] | < 200 | –
O=C(Nc1cccc(-c2nc3ccccc3[nH]2)c1)c1cccs1 [Example 504, N-(3-(1H-benzo[d]imidazol-2-yl)phenyl)thiophene-2-carboxamide] | < 200 | –
Cc1ccc2oc(-c3ccc([N+](=O)[O-])cc3)nc2c1 [Example 505, 5-methyl-2-(4-nitrophenyl)benzo[d]oxazole] | 201 to 300 | –
Cc1ccc2nc(-c3ccc(N)cc3)oc2c1 [Example 506, 4-(6-methylbenzo[d]oxazol-2-yl)aniline] | < 200 | –
Fc1ccccc1-c1nc2ccccc2[nH]1 [Example 507, 2-(2-fluorophenyl)-1H-benzo[d]imidazole] | 201 to 300 | –
O=[N+]([O-])c1ccc2[nH]c(-c3ccco3)nc2c1 [Example 508, 2-(furan-2-yl)-5-nitro-1H-benzo[d]imidazole] | < 200 | –
CN(C)c1ccc(-c2nc3cc([N+](=O)[O-])ccc3[nH]2)cc1 [Example 509, N,N-dimethyl-4-(5-nitro-1H-benzo[d]imidazol-2-yl)aniline] | 201 to 300 | –
Nc1ccc2[nH]c(-c3ccco3)nc2c1 [Example 510, 2-(furan-2-yl)-1H-benzo[d]imidazol-5-amine dihydrochloride] | < 200 | –
O=C(Nc1ccccc1-c1nc2ccccc2[nH]1)c1ccc(S(=O)(=O)N2CCCC2)cc1 [Example 511, N-(2-(1H-benzo[d]imidazol-2-yl)phenyl)-4-(pyrrolidin-1-ylsulfonyl)benzamide] | < 200 | –
COc1ccc(-c2nc3cc(N)ccc3o2)cc1 [Example 512, 2-(4-methoxyphenyl)benzo[d]oxazol-5-amine] | < 200 | –
